Measurements from patent publication US12662479B2 (Foghorn Therapeutics Inc., priority 2020, dated 2026).

How the values were obtained:
[1] = molecular target: T1, HiBit-BRG1 fusion protein (Homo sapiens, UniProt P51532); experiment: HiBiT-BRG1 cell-based degradation assay (Nano-Glo HiBiT Lytic Detection, 24 h); conditions: HeLa cells expressing HiBit-BRG1 and LgBit; for DC50: read-out: BRG1 HiBit Degradation IC50; for Dmax: HeLa, top dose 30 μM, read-out: BRG1 HiBit Degradation Maximum measured
T1 construct: expressed in transfected cells
T1 sequence (P51532 whole entry, the tested form may be a part): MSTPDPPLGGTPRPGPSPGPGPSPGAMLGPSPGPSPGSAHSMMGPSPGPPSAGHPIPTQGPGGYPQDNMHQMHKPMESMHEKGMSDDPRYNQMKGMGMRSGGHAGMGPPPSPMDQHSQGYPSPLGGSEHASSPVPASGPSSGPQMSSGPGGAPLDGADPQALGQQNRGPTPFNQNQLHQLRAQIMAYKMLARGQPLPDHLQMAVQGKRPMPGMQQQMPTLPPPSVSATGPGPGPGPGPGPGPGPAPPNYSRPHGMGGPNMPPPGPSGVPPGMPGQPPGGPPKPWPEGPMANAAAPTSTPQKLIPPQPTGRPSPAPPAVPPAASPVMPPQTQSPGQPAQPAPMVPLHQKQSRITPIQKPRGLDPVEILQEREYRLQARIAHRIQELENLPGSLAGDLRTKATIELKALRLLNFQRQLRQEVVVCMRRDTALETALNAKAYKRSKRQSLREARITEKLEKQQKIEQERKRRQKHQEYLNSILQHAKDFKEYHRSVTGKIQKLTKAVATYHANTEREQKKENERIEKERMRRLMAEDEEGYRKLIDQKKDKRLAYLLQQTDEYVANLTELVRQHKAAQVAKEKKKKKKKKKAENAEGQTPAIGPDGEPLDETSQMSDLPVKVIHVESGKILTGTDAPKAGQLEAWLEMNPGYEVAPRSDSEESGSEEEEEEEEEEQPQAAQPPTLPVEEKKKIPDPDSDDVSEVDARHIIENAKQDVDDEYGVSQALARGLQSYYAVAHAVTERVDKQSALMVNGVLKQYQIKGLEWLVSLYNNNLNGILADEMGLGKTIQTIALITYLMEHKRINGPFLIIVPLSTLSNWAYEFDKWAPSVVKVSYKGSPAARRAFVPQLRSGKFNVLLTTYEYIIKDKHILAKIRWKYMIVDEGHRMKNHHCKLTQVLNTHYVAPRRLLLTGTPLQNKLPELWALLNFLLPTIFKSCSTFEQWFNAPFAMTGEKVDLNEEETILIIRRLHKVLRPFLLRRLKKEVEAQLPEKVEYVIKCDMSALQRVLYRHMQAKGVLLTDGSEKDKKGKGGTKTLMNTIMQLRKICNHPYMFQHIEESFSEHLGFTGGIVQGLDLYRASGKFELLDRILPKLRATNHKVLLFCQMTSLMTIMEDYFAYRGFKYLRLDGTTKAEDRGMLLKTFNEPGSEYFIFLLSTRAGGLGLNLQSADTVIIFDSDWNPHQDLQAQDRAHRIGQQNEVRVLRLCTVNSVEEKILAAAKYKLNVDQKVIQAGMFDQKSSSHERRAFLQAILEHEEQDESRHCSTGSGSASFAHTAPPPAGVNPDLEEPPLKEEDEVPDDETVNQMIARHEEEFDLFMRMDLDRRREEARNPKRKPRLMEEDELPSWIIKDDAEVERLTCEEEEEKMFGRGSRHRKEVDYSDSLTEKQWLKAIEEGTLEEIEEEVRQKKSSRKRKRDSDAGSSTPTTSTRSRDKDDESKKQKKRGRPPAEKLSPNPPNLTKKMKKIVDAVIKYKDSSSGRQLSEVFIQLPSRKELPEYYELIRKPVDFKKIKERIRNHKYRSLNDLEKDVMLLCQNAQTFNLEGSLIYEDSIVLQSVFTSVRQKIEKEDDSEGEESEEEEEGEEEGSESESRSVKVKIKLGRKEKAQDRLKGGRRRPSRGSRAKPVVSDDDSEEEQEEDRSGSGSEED
Outline: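 Degradation is scaled from DMSO-treated cells (0%) to cells given 2 μM of a known BRM/BRG1 degrader (100%). HeLa cells stably carrying HiBiT-BRG1 plus LgBiT (5000/well) were lysed with Nano-Glo HiBiT detection reagent, shaken 10 min at RT, and luminescence read.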

[2] = molecular target: T2, HiBit-BRM fusion protein (Homo sapiens, UniProt P51531); experiment: HiBiT-BRM cell-based degradation assay (Nano-Glo HiBiT Lytic Detection, 24 h); conditions: HeLa cells expressing HiBiT-BRM; for DC50: read-out: BRM HiBit Degradation IC50; for BRM HiBit Degradation Maximum measured: top dose 30 μM
T2 construct: expressed in transfected cells
T2 sequence (P51531 whole entry, the tested form may be a part): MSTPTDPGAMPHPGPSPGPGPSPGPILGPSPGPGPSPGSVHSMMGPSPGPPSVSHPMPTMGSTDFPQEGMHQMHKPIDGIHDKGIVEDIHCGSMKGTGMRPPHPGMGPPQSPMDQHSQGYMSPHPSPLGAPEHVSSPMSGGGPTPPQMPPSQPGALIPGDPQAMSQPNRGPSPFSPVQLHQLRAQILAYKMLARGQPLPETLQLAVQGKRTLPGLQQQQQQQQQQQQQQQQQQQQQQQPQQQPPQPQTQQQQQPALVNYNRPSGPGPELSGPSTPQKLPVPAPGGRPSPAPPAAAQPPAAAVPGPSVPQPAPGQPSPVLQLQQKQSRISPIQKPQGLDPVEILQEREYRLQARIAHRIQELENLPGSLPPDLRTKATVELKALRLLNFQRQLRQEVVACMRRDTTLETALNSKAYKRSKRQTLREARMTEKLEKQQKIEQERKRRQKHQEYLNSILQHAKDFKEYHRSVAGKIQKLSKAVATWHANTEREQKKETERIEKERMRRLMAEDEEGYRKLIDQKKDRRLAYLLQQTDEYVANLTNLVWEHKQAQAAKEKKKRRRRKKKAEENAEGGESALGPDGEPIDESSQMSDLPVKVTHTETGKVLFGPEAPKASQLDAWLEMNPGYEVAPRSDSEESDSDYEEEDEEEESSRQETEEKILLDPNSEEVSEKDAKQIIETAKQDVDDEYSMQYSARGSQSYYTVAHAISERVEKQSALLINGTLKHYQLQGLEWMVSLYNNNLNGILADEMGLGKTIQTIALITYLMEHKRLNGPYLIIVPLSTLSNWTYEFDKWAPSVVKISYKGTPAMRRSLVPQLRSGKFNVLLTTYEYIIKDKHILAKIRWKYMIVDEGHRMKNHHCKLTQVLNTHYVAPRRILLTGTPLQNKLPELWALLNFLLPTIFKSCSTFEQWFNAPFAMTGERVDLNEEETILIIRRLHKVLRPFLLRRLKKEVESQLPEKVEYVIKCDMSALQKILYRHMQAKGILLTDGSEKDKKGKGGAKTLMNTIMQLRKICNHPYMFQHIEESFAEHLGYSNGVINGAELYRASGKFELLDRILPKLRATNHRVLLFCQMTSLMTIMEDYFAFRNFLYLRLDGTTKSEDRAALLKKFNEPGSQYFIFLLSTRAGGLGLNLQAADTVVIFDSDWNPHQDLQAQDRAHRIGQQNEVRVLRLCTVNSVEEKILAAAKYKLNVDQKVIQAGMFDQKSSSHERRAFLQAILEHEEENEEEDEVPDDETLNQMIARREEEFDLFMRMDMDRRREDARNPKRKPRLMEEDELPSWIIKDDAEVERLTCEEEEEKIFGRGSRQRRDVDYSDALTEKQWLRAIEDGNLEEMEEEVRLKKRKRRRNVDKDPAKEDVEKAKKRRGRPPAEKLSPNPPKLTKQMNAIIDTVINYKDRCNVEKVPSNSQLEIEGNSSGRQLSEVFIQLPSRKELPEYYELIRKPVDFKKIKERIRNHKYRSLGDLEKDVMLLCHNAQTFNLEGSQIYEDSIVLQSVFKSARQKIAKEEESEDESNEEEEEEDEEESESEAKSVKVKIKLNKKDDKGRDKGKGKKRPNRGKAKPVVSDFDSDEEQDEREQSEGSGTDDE
Outline: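 Percent BRM loss was derived from HiBiT luminescence relative to DMSO-treated cells and cells given 2 μM of a known BRM/BRG1 degrader. Treatment lasted 24 h in HiBiT-BRM HeLa cells, with a top final concentration of 30 μM.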

Work on `Cc1ncsc1-c1ccc(CNC(=O)[C@@H]2C[C@@H](O)CN2C(=O)[C@@H](NC(=O)CCCC(=O)NCc2cccc(-c3cccc(-c4csc(NC(=O)CNC(=O)c5ccn(S(C)(=O)=O)c5)n4)c3)c2)C(C)(C)C)cc1` [Compound 56, N′-[(1S)-1-[(2S,4R)-4-hydroxy-2-[[4-(4-methylthiazol-5-yl)phenyl]methylcarbamoyl]pyrrolidine-1-carbonyl]-2,2-dimethyl-propyl]-N-[[3-[3-[2-[[2-[(1-methylsulfonylpyrrole-3-carbonyl)amino]acetyl]amino]thiazol-4-yl]phenyl]phenyl]methyl]pentanediamide] yielded a DC50 [1] of over 10 µM, a Dmax [1] of under 50% and a DC50 [2] of over 10 µM. The “BRM HiBit Degradation Maximum measured” value [2] was “C (‘C’ = Maximum degradation <50%)”.
With `CS(=O)(=O)n1ccc(C(=O)NCC(=O)Nc2nc(-c3cccc(-c4cccc(CNC(=O)CCCCOc5cccc6c5C(=O)N(C5CCC(=O)NC5=O)C6=O)c4)c3)cs2)c1` (centres unmarked) [Compound 57, N-(2-((4-(3′-((5-((2-(2,6-dioxopiperidin-3-yl)-1,3-dioxoisoindolin-4-yl)oxy)pentanamido)methyl)-[1,1′-biphenyl]-3-yl)thiazol-2-yl)amino)-2-oxoethyl)-1-(methylsulfonyl)-1H-pyrrole-3-carboxamide] the DC50 [1] was over 10 µM, the Dmax [1] was under 50% and the DC50 [2] was over 10 µM. For the same molecule, the “BRM HiBit Degradation Maximum measured” value [2] was “C (‘C’ = Maximum degradation <50%)”.
Molecule `CS(=O)(=O)n1ccc(C(=O)NCC(=O)Nc2nc(-c3cccc(-c4cccc(CNC(=O)CCCCCCCOc5cccc6c5C(=O)N(C5CCC(=O)NC5=O)C6=O)c4)c3)cs2)c1` (centres unmarked) [Compound 59, N-(2-((4-(3′-((8-((2-(2,6-dioxopiperidin-3-yl)-1,3-dioxoisoindolin-4-yl)oxy)octanamido)methyl)-[1,1′-biphenyl]-3-yl)thiazol-2-yl)amino)-2-oxoethyl)-1-(methylsulfonyl)-1H-pyrrole-3-carboxamide] has a DC50 [1] of over 10 µM, a Dmax [1] of under 50% and a DC50 [2] of over 10 µM. The “BRM HiBit Degradation Maximum measured” value [2] was “C (‘C’ = Maximum degradation <50%)”.
`CN(CC(=O)NCCCCCNc1ccc2c(c1)C(=O)N(C1CCC(=O)NC1=O)C2=O)c1cc(-c2cccc(-c3csc(NC(=O)CNC(=O)c4ccn(S(C)(=O)=O)c4)n3)c2)ccn1` (centres unmarked) [Compound 60] showed a DC50 [1] of over 10 µM, a Dmax [1] of under 50% and a DC50 [2] of over 10 µM. For the same molecule, the “BRM HiBit Degradation Maximum measured” value [2] was “C (‘C’ = Maximum degradation <50%)”.
`CS(=O)(=O)n1ccc(C(=O)NCC(=O)Nc2nc(-c3cccc(-c4cccc(CNC(=O)C5CC5CNC(=O)COc5ccc6c(c5)C(=O)N(C5CCC(=O)NC5=O)C6=O)c4)c3)cs2)c1` (centres unmarked) [Compound 61, N-[2-[[4-[3-[3-[[[2-[[[2-[2-(2,6-dioxo-3-piperidyl)-1,3-dioxo-isoindolin-5-yl]oxyacetyl]amino]methyl]-cyclopropanecarbonyl]amino]methyl]-phenyl]phenyl]thiazol-2-yl]amino]-2-oxo-ethyl]-1-methylsulfonyl-pyrrole-3-carboxamide] was tested, and the DC50 [1] was 0.1 to 1 µM, the Dmax [1] was 50 to 75% and the DC50 [2] was 1 to 10 µM. The “BRM HiBit Degradation Maximum measured” value [2] was “B (‘B’ = Maximum degradation ≥50% and ≤75%)”.
`Cc1ncsc1-c1ccc(CNC(=O)[C@@H]2C[C@@H](O)CN2C(=O)[C@@H](NC(=O)CCCCCC(=O)NCc2cccc(-c3cccc(-c4csc(NC(=O)CNC(=O)c5ccn(S(C)(=O)=O)c5)n4)c3)c2)C(C)(C)C)cc1` [Compound 62, N1-((S)-1-((2S,4R)-4-hydroxy-2-((4-(4-methylthiazol-5-yl)benzyl)carbamoyl)pyrrolidin-1-yl)-3,3-dimethyl-1-oxobutan-2-yl)-N7-((3′-(2-(2-(1-(methylsulfonyl)-1H-pyrrole-3-carboxamido)acetamido)thiazol-4-yl)-[1,1′-biphenyl]-3-yl)methyl)heptanediamide] gave a DC50 [1] of 0.1 to 1 µM, a Dmax [1] of over 75% and a DC50 [2] of 0.1 to 1 µM. For the same molecule, the “BRM HiBit Degradation Maximum measured” value [2] was “A (‘A’ = Maximum degradation >75%)”.
Molecule `Cc1ncsc1-c1ccc(CNC(=O)[C@@H]2C[C@@H](O)CN2C(=O)[C@@H](NC(=O)CCC(=O)NCc2cccc(-c3cccc(-c4csc(NC(=O)CNC(=O)c5ccn(S(C)(=O)=O)c5)n4)c3)c2)C(C)(C)C)cc1` [Compound 63, N1-((S)-1-((2S,4R)-4-hydroxy-2-((4-(4-methylthiazol-5-yl)benzyl)carbamoyl)pyrrolidin-1-yl)-3,3-dimethyl-1-oxobutan-2-yl)-N4-((3′-(2-(2-(1-(methylsulfonyl)-1H-pyrrole-3-carboxamido)acetamido)thiazol-4-yl)-[1,1′-biphenyl]-3-yl)methyl)succinamide] has a DC50 [1] of over 10 µM, a Dmax [1] of under 50% and a DC50 [2] of over 10 µM. The “BRM HiBit Degradation Maximum measured” value [2] was “C (‘C’ = Maximum degradation <50%)”.
In the case of `CS(=O)(=O)n1ccc(C(=O)NCC(=O)Nc2nc(-c3cccc(-c4cccc(CNC(=O)CCOCCOCCOc5cccc6c5C(=O)N(C5CCC(=O)NC5=O)C6=O)c4)c3)cs2)c1` (centres unmarked) [Compound 64, N-[2-[[4-[3-[3-[[3-[2-[2-[2-(2,6-dioxo-3-piperidyl)-1,3-dioxo-isoindolin-4-yl]oxyethoxy]ethoxy]propanoylamino]-methyl]phenyl]phenyl]thiazol-2-yl]amino]-2-oxo-ethyl]-1-methylsulfonyl-pyrrole-3-carboxamide], the DC50 [1] is reported as over 10 µM, the Dmax [1] is reported as under 50% and the DC50 [2] is reported as over 10 µM. The “BRM HiBit Degradation Maximum measured” value [2] was “C (‘C’ = Maximum degradation <50%)”.
`Cc1ncsc1-c1ccc(CNC(=O)[C@@H]2C[C@@H](O)CN2C(=O)[C@@H](NC(=O)CCCCCCCCCC(=O)NCc2cccc(-c3cccc(-c4csc(NC(=O)CNC(=O)c5ccn(S(C)(=O)=O)c5)n4)c3)c2)C(C)(C)C)cc1` [Compound 65, N1-((S)-1-((2S,4R)-4-hydroxy-2-((4-(4-methylthiazol-5-yl)benzyl)carbamoyl)pyrrolidin-1-yl)-3,3-dimethyl-1-oxobutan-2-yl)-N11-((3′-(2-(2-(1-(methylsulfonyl)-1H-pyrrole-3-carboxamido)acetamido)thiazol-4-yl)-[1,1′-biphenyl]-3-yl)methyl)undecanediamide] was tested, and the DC50 [1] was under 0.1 µM, the Dmax [1] was over 75% and the DC50 [2] was under 0.1 µM. For the same molecule, the “BRM HiBit Degradation Maximum measured” value [2] was “A (‘A’ = Maximum degradation >75%)”.
For `CN(CC(=O)NCCCCNc1ccc2c(c1)C(=O)N(C1CCC(=O)NC1=O)C2=O)c1cc(-c2cccc(-c3csc(NC(=O)CNC(=O)c4ccn(S(C)(=O)=O)c4)n3)c2)ccn1` (centres unmarked) [Compound 67], the DC50 [1] was over 10 µM, the Dmax [1] was under 50% and the DC50 [2] was over 10 µM. The “BRM HiBit Degradation Maximum measured” value [2] was “C (‘C’ = Maximum degradation <50%)”.
Work on `CS(=O)(=O)n1ccc(C(=O)NCC(=O)Nc2nc(-c3cccc(-c4ccnc(OCCNC(=O)CCOCCOCCOc5cccc6c5C(=O)N(C5CCC(=O)NC5=O)C6=O)c4)c3)cs2)c1` (centres unmarked) [Compound 68, N-[2-[[4-[3-[2-[2-[3-[2-[2-[2-(2,6-dioxo-3-piperidyl)-1,3-dioxoisoindolin-4-yl]oxyethoxy]ethoxy]propanoylamino]ethoxy]-4-pyridyl]phenyl]thiazol-2-yl]amino]-2-oxo-ethyl]-1-methylsulfonyl-pyrrole-3-carboxamide] yielded a DC50 [1] of 0.1 to 1 µM, a Dmax [1] of 50 to 75% and a DC50 [2] of 0.1 to 1 µM. The “BRM HiBit Degradation Maximum measured” value [2] was “B (‘B’ = Maximum degradation ≥50% and ≤75%)”.
Molecule `Cc1ncsc1-c1ccc(CNC(=O)[C@@H]2C[C@@H](O)CN2C(=O)[C@@H](NC(=O)CCCCCCCCC(=O)NCCOc2cc(-c3cccc(-c4csc(NC(=O)CNC(=O)c5ccn(S(C)(=O)=O)c5)n4)c3)ccn2)C(C)(C)C)cc1` [Compound 69, N1-((S)-1-((2S,4R)-4-hydroxy-2-((4-(4-methylthiazol-5-yl)benzyl)carbamoyl)pyrrolidin-1-yl)-3,3-dimethyl-1-oxobutan-2-yl)-N10-(2-((4-(3-(2-(2-(1-(methylsulfonyl)-1H-pyrrole-3-carboxamido)acetamido)thiazol-4-yl)phenyl)pyridin-2-yl)oxy)ethyl)decanediamide] has a DC50 [1] of 0.1 to 1 µM, a Dmax [1] of over 75% and a DC50 [2] of under 0.1 µM. For the same molecule, the “BRM HiBit Degradation Maximum measured” value [2] was “A (‘A’ = Maximum degradation >75%)”.
`Cc1ncsc1-c1ccc(CNC(=O)[C@@H]2C[C@@H](O)CN2C(=O)[C@@H](NC(=O)COCCOCC(=O)NCCOc2cc(-c3cccc(-c4csc(NC(=O)CNC(=O)c5ccn(S(C)(=O)=O)c5)n4)c3)ccn2)C(C)(C)C)cc1` [Compound 71, N-(2-((4-(3-(2-(((S)-13-((2S,4R)-4-hydroxy-2-((4-(4-methylthiazol-5-yl)benzyl)carbamoyl)pyrrolidine-1-carbonyl)-14,14-dimethyl-4,11-dioxo-6,9-dioxa-3,12-diazapentadecyl)oxy)pyridin-4-yl)phenyl)thiazol-2-yl)amino)-2-oxoethyl)-1-(methylsulfonyl)-1H-pyrrole-3-carboxamide] was tested, and the DC50 [1] was over 10 µM, the Dmax [1] was under 50% and the DC50 [2] was over 10 µM. The “BRM HiBit Degradation Maximum measured” value [2] was “C (‘C’ = Maximum degradation <50%)”.
`Cc1ncsc1-c1ccc(CNC(=O)[C@@H]2C[C@@H](O)CN2C(=O)[C@@H](NC(=O)COCC(=O)N2CCN(c3cc(-c4cccc(-c5csc(NC(=O)CNC(=O)c6ccn(S(C)(=O)=O)c6)n5)c4)ccn3)CC2)C(C)(C)C)cc1` [Compound 72, N-[2-[[4-[3-[2-[4-[2-[2-[[(1S)-1-[(2S,4R)-4-hydroxy-2-[[4-(4-methylthiazol-5-yl)phenyl]methylcarbamoyl]pyrrolidine-1-carbonyl]-2,2-dimethyl-propyl]amino]-2-oxo-ethoxy]acetyl]piperazin-1-yl]-4-pyridyl]phenyl]thiazol-2-yl]amino]-2-oxo-ethyl]-1-methylsulfonyl-pyrrole-3-carboxamide] gave a DC50 [1] of over 10 µM, a Dmax [1] of under 50% and a DC50 [2] of over 10 µM. For the same molecule, the “BRM HiBit Degradation Maximum measured” value [2] was “C (‘C’ = Maximum degradation <50%)”.
